# Assay results published in patent US11857519B2, “Compounds and methods for the targeted degradation of enhancer of zeste homolog 2 polypeptide” (Arvinas Operations, Inc., priority 2016, dated 2024).
# Molecular target: T1, EZH2 (Homo sapiens, UniProt Q15910)
# T1 construct: Protocol of the Cellular Assay of Target Protein Degradation (VCaP Cells, ELISA); endogenous in cells; host or cells: VCaP cells
# Test: Cellular assay of target protein degradation (VCaP cells, ELISA)
# Type: cell-based
# Conditions: 4 hours, protein degradation range at indicated concentration (relative to DMSO control)
# Experimental: Protocol of the Cellular Assay of Target Protein Degradation (VCaP Cells, ELISA).
# For detection Cell Signaling PathScan Sandwich ELISA Catalog #12850 Lot 11 was used. VCaP cells were cultured in ATCC DMEM+ATCC FBS and plated 40,000/well 100 μl/well in RPMI P/S with 5% CSS Omega (bovine) serum into a 96 well plate. The cells were grown for a minimum of 3 days, dosed with compounds in 0.1% DMSO (diluted with 5% CSS) and incubated with aspiration for 4 hours. 100 μl of 1× Cell Signaling lysis buffer #9803 (36 mL dH2O+4 mL Cell Signaling lysis buffer) was added. The incubation was placed on cold room shaker for 10 minutes at speed 8-9. 5 μl to 100 μL of Diluent was transferred to ELISA plate (0.15 μg/mL−0.075 μg/mL) and stored at 4° C. overnight on cold room shaker speed 5 (gentle swirl) and then shaken next morning at 37° C. for 30 minutes. The preparation was washed 4×200 μl with ELISA wash buffer and aspirated with eight-channel aspirator. 100 μl/well of target protein detection antibody was added after, which the preparation was covered and shaken at 37° C. for 1 hour. 100 μl TMB was added, and the mixture was shaken for 5 min while under observation. When TMB turned light blue, 100 μl of Stop solution was added, and the mixture was shaken and read at 450 nm. Also read at 562 nm for background subtraction.
# T1 sequence (Q15910 whole entry): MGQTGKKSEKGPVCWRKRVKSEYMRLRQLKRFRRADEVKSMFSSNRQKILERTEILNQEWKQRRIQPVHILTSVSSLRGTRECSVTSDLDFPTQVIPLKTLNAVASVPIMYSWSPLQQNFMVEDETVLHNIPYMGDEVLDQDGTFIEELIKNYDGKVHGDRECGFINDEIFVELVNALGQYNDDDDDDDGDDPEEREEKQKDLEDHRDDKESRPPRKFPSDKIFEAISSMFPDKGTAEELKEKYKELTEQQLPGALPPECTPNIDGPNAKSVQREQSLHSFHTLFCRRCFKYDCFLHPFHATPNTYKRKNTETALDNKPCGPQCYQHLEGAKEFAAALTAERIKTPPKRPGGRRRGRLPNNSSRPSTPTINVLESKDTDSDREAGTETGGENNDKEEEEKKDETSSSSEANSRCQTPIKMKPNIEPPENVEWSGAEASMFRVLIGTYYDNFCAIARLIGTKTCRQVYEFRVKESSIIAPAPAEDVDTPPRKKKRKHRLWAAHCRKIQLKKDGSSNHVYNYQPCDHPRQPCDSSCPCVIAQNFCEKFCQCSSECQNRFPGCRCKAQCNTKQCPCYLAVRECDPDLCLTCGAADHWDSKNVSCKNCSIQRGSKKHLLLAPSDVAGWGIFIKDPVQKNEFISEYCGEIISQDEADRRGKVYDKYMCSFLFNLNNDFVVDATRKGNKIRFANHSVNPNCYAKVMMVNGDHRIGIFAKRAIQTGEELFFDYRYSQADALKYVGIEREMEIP
# T1 sequence (O75530 whole entry partner): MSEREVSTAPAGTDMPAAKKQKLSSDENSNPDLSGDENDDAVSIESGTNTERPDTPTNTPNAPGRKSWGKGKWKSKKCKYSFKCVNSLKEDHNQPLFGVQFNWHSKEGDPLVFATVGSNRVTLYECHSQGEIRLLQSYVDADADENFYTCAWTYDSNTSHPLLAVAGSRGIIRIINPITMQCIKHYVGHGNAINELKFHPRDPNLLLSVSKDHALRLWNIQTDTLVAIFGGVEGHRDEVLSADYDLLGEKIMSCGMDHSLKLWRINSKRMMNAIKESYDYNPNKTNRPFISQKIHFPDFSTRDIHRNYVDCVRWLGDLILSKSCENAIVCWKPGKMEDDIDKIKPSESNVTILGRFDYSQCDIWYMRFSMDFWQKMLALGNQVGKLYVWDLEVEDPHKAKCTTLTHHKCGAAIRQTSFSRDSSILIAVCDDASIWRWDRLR
# T1 sequence (Q15022 whole entry partner): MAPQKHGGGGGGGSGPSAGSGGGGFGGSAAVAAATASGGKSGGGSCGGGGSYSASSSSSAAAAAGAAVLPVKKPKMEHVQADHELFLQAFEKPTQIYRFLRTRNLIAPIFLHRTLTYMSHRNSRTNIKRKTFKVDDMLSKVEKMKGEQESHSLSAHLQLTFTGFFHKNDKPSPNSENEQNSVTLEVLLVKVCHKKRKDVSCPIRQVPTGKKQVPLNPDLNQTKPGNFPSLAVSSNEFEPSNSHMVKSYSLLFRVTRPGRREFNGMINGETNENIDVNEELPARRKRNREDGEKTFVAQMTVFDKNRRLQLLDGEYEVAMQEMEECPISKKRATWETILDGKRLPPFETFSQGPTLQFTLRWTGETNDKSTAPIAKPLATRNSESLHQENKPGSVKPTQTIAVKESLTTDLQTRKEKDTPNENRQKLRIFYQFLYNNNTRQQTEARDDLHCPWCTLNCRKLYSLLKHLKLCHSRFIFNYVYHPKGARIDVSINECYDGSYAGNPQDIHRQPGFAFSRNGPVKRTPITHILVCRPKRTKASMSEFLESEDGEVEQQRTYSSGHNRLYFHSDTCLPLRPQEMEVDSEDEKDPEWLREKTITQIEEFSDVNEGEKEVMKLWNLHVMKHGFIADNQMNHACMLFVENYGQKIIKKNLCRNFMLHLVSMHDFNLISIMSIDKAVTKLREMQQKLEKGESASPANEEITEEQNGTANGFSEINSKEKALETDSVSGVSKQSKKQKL
row,Compound,percent target protein degradation class
1,"CCN(c1cc(-c2ccc(OCCOCCOCCOCCOCCOCCOCCOCCOCCNc3cccc4c3C(=O)N(C3CCC(=O)NC3=O)C4=O)cc2)cc(C(=O)NCc2c(C)cc(C)[nH]c2=O)c1C)C1CCOCC1 (stereo not drawn) [Compound 23, N-[(4,6-dimethyl-2-oxo-1,2-dihydropyridin-3-yl)methyl]-5-[4-({l-[2-(2,6-dioxopiperidin-3-yl)-1,3-dioxo-2,3-dihydro-1H-isoindol-4-yl]-4,7,10,13,16,19,22,25-octaoxa-1-azaheptacosan-27-yl}oxy)phenyl]-3-[ethyl(oxan-4-yl)amino]-2-methylbenzamide]",B (B = degradation between 30% and 60%)
2,"CCN(c1cc(-c2ccccc2OCCOCCOCCOCCOCCOCCNc2cccc3c2C(=O)N(C2CCC(=O)NC2=O)C3=O)cc(C(=O)NCc2c(C)cc(C)[nH]c2=O)c1C)C1CCOCC1 (stereo not drawn) [Compound 25, N-[(4,6-dimethyl-2-oxo-1,2-dihydropyridin-3-yl)methyl]-5-[2-({1-[2-(2,6-dioxopiperidin-3-yl)-1,3-dioxo-2,3-dihydro-1H-isoindol-4-yl]-4,7,10,13,16-pentaoxa-1-azaoctadecan-18-yl}oxy)phenyl]-3-[ethyl(oxan-4-yl)amino]-2-methylbenzamide]",B (B = degradation between 30% and 60%)
3,"CCN(c1cc(-c2ccc(OCCOCCOCCOCCOCCOc3ccc(-c4csc([C@@H]5CCCN5C(=O)[C@@H](NC(=O)[C@H](C)NC)C5CCCCC5)n4)c4ccccc34)cc2)cc(C(=O)NCc2c(C)cc(C)[nH]c2=O)c1C)C1CCOCC1 [Compound 30, 5-(4-{[1-(4-{2-[(2S)-1-[(2S)-2-cyclohexyl-2-[(2S)-2-(methylamino)propanamido]acetyl]pyrrolidin-2-yl]-1,3-thiazol-4-yl}naphthalen-1-yl)-1,4,7,10,13-pentaoxapentadecan-15-yl]oxy}phenyl)-N-[(4,6-dimethyl-2-oxo-1,2-dihydropyridin-3-yl)methyl]-3-[ethyl(oxan-4-yl)amino]-2-methylbenzamide]",B (B = degradation between 30% and 60%)

# Now from value to molecule:
row,percent target protein degradation class,Compound
1,B (B = degradation between 30% and 60%),"CCN(c1cc(-c2ccc(OCCOCCOCCOc3ccc(-c4csc([C@@H]5CCCN5C(=O)[C@@H](NC(=O)[C@H](C)NC)C5CCCCC5)n4)c4ccccc34)cc2)cc(C(=O)NCc2c(C)cc(C)[nH]c2=O)c1C)C1CCOCC1 [Compound 28, 5-{4-[2-(2-{2-[(4-{2-[(2S)-1-[(2S)-2-cyclohexyl-2-[(2S)-2-(methylamino)propanamido]acetyl]pyrrolidin-2-yl]-1,3-thiazol-4-yl}naphthalen-1-yl)oxy]ethoxy}ethoxy)ethoxy]phenyl}-N-[(4,6-dimethyl-2-oxo-1,2-dihydropyridin-3-yl)methyl]-3-[ethyl(oxan-4-yl)amino]-2-methylbenzamide]"
2,A (A = degradation more than 60%),CCN(c1cc(-c2ccc(OCCOCCOCC(=O)N[C@H](C(=O)N3C[C@H](O)C[C@H]3C(=O)NCc3ccc(-c4scnc4C)cc3)C(C)(C)C)cc2)cc(C(=O)NCc2c(C)cc(C)[nH]c2=O)c1C)C1CCOCC1 [Compound 31]
3,B (B = degradation between 30% and 60%),"CCN(c1cc(-c2ccc(OCCOCC(=O)N[C@H](C(=O)N3C[C@H](O)C[C@H]3C(=O)NCc3ccc(-c4scnc4C)cc3)C(C)(C)C)cc2)cc(C(=O)NCc2c(C)cc(C)[nH]c2=O)c1C)C1CCOCC1 [Compound 32, (2S,4R)-1-[(2S)-2-(2-{2-[4-(3-{[(4,6-dimethyl-2-oxo-1,2-dihydropyridin-3-yl)methyl]carbamoyl}-5-[ethyl(oxan-4-yl)amino]-4-methylphenyl)phenoxy]ethoxy}acetamido)-3,3-dimethylbutanoyl]-4-hydroxy-N-{[4-(4-methyl-1,3-thiazol-5-yl)phenyl]methyl}pyrrolidine-2-carboxamide]"
